In US9884040B2, “Desethylamiodarone for use in cancer treatment” (PÉCSI TUDOMÁNYEGYETEM, priority 2015, dated 2018):

Legend:
[1] = system: T24/83 human urinary bladder carcinoma cell line; experiment: Colony formation assay, T24; type: cell-based; conditions: 7 days; 500 nM-3 μM
Description: Cells were trypsinized and plated in triplicate into 6-well plates at 500 cells/well. Cells were treated with different concentration of Dea. After 7 days of incubation, cells were washed and stained with Coomassie-blue, and the colonies containing more than 50 cells were counted. The number of colonies were determined and normalized to the number of colonies in controls.
To assess the recovery ability of cells that survived treatment, long-term (7 days) colony formation assay was performed.
Untreated cells served as controls. The results are mean±SEM of 3 independent experiments performed in at least quadruplicate. p<0.01 compared to the corresponding control group. The data shown on FIG. 5 provide evidence that DEA can be useful to treat bladder cancer.

[2] = system: HeLa human cervix adenocarcinoma cell line; experiment: Colony formation assay, HeLa; type: cell-based; conditions: one week; 1, 1.5, 2, 2.5 or 3 μM
Description: Cells were trypsinized and plated in triplicate into 6-well plates at 500 cells/well. Cells were treated with different concentration of Dea. After 7 days of incubation, cells were washed and stained with Coomassie-blue, and the colonies containing more than 50 cells were counted. The number of colonies were determined and normalized to the number of colonies in controls. To assess the recovery ability of cells that survived treatment, long-term (7 days) colony formation assay was performed. […] HeLa cells were incubated with the indicated concentrations of desethylamiodarone (1, 1.5, 2, 2.5 or 3 μM for one week and cell colonies were fixed, stained and counted. (A-B) Data are expressed as the mean±SD of ≧3 experiments; a p<0.01 is considered statistically significant The data shown on FIG. 8 provide evidence that DEA can be useful to cervix carcinoma.

[3] = system: A549 (human lung adenocarcinoma epithelial) cells; experiment: MTT cell viability assay, A549; type: cell-based; conditions: increasing concentrations, 24 and 48 h
Description: (§1) The cells were seeded into 96-well plates at a starting density of 10^4 cells per well and cultured overnight before DEA was added to the medium for 24 h and 48 h. The medium was changed to a fresh one containing 0.5% of 3-[4,5-dimethylthiazol-2-yl]-2,5-diphenyl-tetrazolium bromide (MTT+) for an additional 3 hours, then the MTT+ reaction was terminated by adding HCl to 10 mM final concentration. The amount of blue formazan dye formed from MTT+ was proportional to the number of live cells, and was determined with an Anthos Labtech 2010 ELISA reader at 550 nm. All experiments were run in at least 4 replicates and repeated 3 times.
The effect of desethylamiodarone was measured in T24 (human urinary bladder carcinoma), A549 (human lung adenocarcinoma epithelial), B16F10 (mice melanoma), HeLa (human cervix adenocarcinoma), 4T1 (mouse mammary carcinoma) cell lines. Cells were treated with increasing concentrations of desethylamiodarone for 24 and 48 h. Cell growth was assessed by measuring metabolic activity, which reflects viability in the MTT-test in the course of 24 h, 48 h of continued exposure to desethylamiorarone. The untreated cells served as negative controls. The viability of the cells, was lower in all DEA-treated than in the control group, with the difference being statistically significant.

[4] = system: DU-145 prostate cancer cell line; experiment: MTT cell viability assay, DU-145; type: cell-based; conditions: increasing concentrations, 24, 48 and 72 hours
Description: as §1
145 cells were exposed to increasing concentrations of DEA for 24, 48 and 72 hours. Viability of the cells was detected by the MTT method. Untreated cells served as controls.

[5] = system: T24 (human urinary bladder carcinoma) cells; experiment: MTT cell viability assay, T24; type: cell-based; conditions: 24 h and 48 h; 5, 10, 15 and 15 μM; vs untreated control
Description: as §1
The effect of desethylamiodarone was measured in T24 (human urinary bladder carcinoma), A549 (human lung adenocarcinoma epithelial), B16F10 (mice melanoma), HeLa (human cervix adenocarcinoma), 4T1 (mouse mammary carcinoma) cell lines. Cells were treated with increasing concentrations of desethylamiodarone for 24 and 48 h. Cell growth was assessed by measuring metabolic activity, which reflects viability in the MTT-test in the course of 24 h, 48 h of continued exposure to desethylamiorarone. The untreated cells served as negative controls. […]
T24 cells were exposed for 24 h (A), 48 h (B) to […], 10 μM, 15 μM and 15 μM desethylamiodarone (filled bars). Viability of the cells was detected by the MTT+ method. […]

[6] = clinically relevant concentrations; cited from earlier work
[7] = system: MCF 7 breast cancer cell line; experiment: MTT cell viability assay, MCF 7; type: cell-based; conditions: increasing concentrations, 24, 48 and 72 hours
Description: as §1
MCF 7 cells were exposed to increasing concentrations of DEA for 24, 48 and 72 hours. Viability of the cells was detected by the MTT method. Untreated cells served as controls.

[8] = system: HeLa human cervix adenocarcinoma cell line; experiment: Radiotherapy plus DEA, colony formation, HeLa; type: cell-based; conditions: 1Gy or 2Gy single dose alone or with 500 nM-3 μM DEA
Description: (§2) Cells were trypsinized and plated in triplicate into 6-well plates at 500 cells/well. Cells were treated with different concentration of DEA and irradiated with a dose of 1.0 and 2.0 Grays. A telecobalt (Therathron 780 C) external irradiation equipment (average photon energy of 1.25 MeV) will be applied for irradiating cells. After 7 days of incubation, cells were washed and stained with Coomassie-blue, and the colonies containing more than 50 cells were counted. The number of colonies were determined and normalized to the number of colonies in controls.
(§3) To examine the effects of a DEA on the effectiveness of radiotherapy the cells were treated with 1Gy or 2Gy single dose irradiation alone or combined with 500 nM-3 μM DEA.
The cells were treated with 1Gy or 2Gy single dose irradiation alone or combined with 500 nM-3 μM DEA. Untreated cells served as controls. The results are mean±SEM of 3 independent experiments performed in at least quadruplicate. p<0.05, compared to the corresponding control group.

[9] = cited from earlier work
[10] = system: A549 human lung adenocarcinoma epithelial cell line; experiment: Radiotherapy plus DEA, colony formation, A549; type: cell-based; conditions: 1Gy or 2Gy single dose alone or with 500 nM-3 μM DEA
Description: as §2, §3
The cells were treated with 1Gy or 2Gy single dose irradiation alone or combined with 500 nM-3 μM DEA. Untreated cells served as controls. The results are mean±SEM of 3 independent experiments performed in at least quadruplicate. p<0.05 compared to the corresponding control group.

[11] = system: T24 human bladder cancer cell line; experiment: Radiotherapy plus DEA, colony formation, T24; type: cell-based; conditions: 1Gy or 2Gy single dose alone or with 500 nM-3 μM DEA
Description: as §2, §3
The cells were treated with 1Gy or 2Gy single dose irradiation alone or combined with 500 nM-3 μM DEA. Untreated cells served as controls. The results are mean±SEM of 3 independent experiments performed in at least quadruplicate. P<0.05 compared to the corresponding control group.

[12] = cited from earlier work; remark: listed apart in the source

CCCCc1oc2ccccc2c1C(=O)c1cc(I)c(OCCNCC)c(I)c1 [DEA, (2-butyl-3-benzofuranyl)[4-[2-(ethylamino)ethoxy]-3,5-diiodophenyl]-methanone]
Colony formation, T24 [1]: significant decrease in the number and the size of colonies
Colony formation, HeLa [2]: significant decrease in the number and the size of colonies
Viability of A549 cells (MTT) [3]: significantly inhibited the viability
Viability of DU-145 cells (MTT) [4]: induces cell death
Viability of T24 cells (MTT) [5]: Significantly different from control group at p<0.01
Action potential duration (class III antiarrhythmic effect) [6]: significantly increasing the action potential duration
Maximum rate of depolarization (class I antiarrhythmic effect) [6]: decreasing the maximum rate of depolarization
Viability of MCF 7 cells (MTT) [7]: induces cell death
Radiosensitization, colony formation, HeLa [8]: sensitize cervix cancer to irradiation
Concentration in patient plasma ([9]; after amiodarone in therapeutic doses): 1700 to 4500 nM
Mean elimination half-life ([9]; in vivo): 40 days
Radiosensitization, colony formation, A549 [10]: sensitize lung cancer to irradiation
Radiosensitization, colony formation, T24 [11]: sensitize bladder cancer to irradiation
Plasma protein binding [12]: strongly bound to plasma proteins
